Reference: patent publication US9187424B1, “Aryl dihydropyridinones and piperidinone MGAT2 inhibitors” (Bristol-Myers Squibb Company, priority 2011, dated 2015)

biological target: Human MGAT-2 (Homo sapiens (Human), UniProt Q3SYC2); assay: MGAT LCMS Assay (human MGAT-2); assay type: biochemical; conditions: human MGAT-2 membranes expressed in Sf9 cells; 2-oleoylglycerol and oleoyl-Coenzyme A; read-out: h-MGAT2 IC50 (nM) LCMS Assay;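 further: diolein product quantified by LC/MS with positive APCI, expressed as peak area ratio versus an internal standard, and this ratio used to derive IC50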
Sequence (Q3SYC2 whole entry): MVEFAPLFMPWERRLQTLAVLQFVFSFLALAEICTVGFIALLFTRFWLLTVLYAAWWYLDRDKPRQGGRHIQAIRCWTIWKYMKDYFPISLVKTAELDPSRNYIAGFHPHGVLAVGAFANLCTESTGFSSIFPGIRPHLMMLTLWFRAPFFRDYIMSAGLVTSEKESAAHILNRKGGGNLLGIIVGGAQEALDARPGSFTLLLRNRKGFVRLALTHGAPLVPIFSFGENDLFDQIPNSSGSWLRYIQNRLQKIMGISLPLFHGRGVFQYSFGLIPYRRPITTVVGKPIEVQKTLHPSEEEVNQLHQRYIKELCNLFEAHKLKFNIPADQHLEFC

Question: `CCOc1ccc(C2=C(C#N)C(=O)NC(c3ccc(OCCCC(F)(F)F)cc3)(C(F)(F)F)C2)cc1F` (centres unmarked) [Example 264] was tested. Which IC50 did it give?
Answer: 46 nM

Question: With `Cc1ccc(C2=C(NC(=O)n3ncnn3)C(=O)NC(c3ccc(OCCCC(F)(F)F)cc3)(C(F)(F)F)C2)cc1` (centres unmarked) [Example 192] as the molecule, how does the IC50 read?
Answer: 433 nM

Question: For `O=C1NC(c2ccc(OCCC(F)(F)F)cc2)(C(F)(F)F)CC(c2ccc(OC(F)(F)F)cc2)=C1c1nn[nH]n1` (centres unmarked) [Example 242], which IC50 is on record?
Answer: 44 nM

Question: With `O=C1NC(c2ccc(OCCCC(F)(F)F)cc2)(C(F)(F)F)CC(c2ccc(C3CC3)cc2)=C1c1nn[nH]n1` (centres unmarked) [Example 235] as the molecule, how does the IC50 read?
Answer: 22 nM

Question: Which IC50 does the source give for `Cc1ccc(C2=C(n3cnnn3)C(=O)NC(c3ccc(OCCCC(F)(F)F)cc3)(C(F)(F)F)C2(F)F)cc1` (centres unmarked) [Example 159] here?
Answer: 16700 nM

Question: Which IC50 does the source give for `COc1ccc(Cn2cc(C3(C(F)(F)F)CC(c4ccc(C)cc4)=C(c4nn[nH]n4)C(=O)N3)cn2)cc1` (centres unmarked) [Example 182] here?
Answer: 2050 nM

Question: `COc1ccc(C2=C(c3ccc(C)cc3)C(F)(F)C(c3ccc(OCCCC(F)(F)F)cc3)(C(F)(F)F)NC2=O)cn1` (centres unmarked) [Example 140] was tested. Which IC50 did it give?
Answer: 356 nM

Question: `COc1ccc(C2=C(c3nn[nH]n3)C(=O)NC(C#CCCc3ccccc3)(C(F)(F)F)C2)cc1` (centres unmarked) [Example 294] was tested. Which IC50 did it give?
Answer: 84 nM

Question: With `CS(=O)(=O)CC(=O)NC1=C(c2ccc(OCC(F)F)cc2)CC(c2ccc(OCCCC(F)(F)F)cc2)(C(F)(F)F)NC1=O` (centres unmarked) [Example 251] as the molecule, how does the IC50 read?
Answer: 3 nM

Question: For `Cc1ccc(C2=C(C(=O)Nn3cnc([N+](=O)[O-])n3)C(=O)NC(c3ccc(OCCC(F)(F)F)cc3)(C(F)(F)F)C2)cc1` (centres unmarked) [Example 132], which IC50 is on record?
Answer: 163 nM

Question: Which IC50 does the source give for `COc1ccc(C2=C(NC(=O)c3cc(C)no3)C(=O)NC(c3ccc(OCCCC(F)(F)F)cc3)(C(F)(F)F)C2)cc1` (centres unmarked) [Example 176] here?
Answer: 3 nM

Question: Which IC50 does the source give for `CCCCCCCC#CC1(C(F)(F)F)CC(c2ccc(C)cc2)=C(c2cn[nH]n2)C(=O)N1` (centres unmarked) [Example 196] here?
Answer: 826 nM

Question: Which IC50 does the source give for `O=C1NC(c2ccc(OCCCC(F)(F)F)cc2)(C(F)(F)F)CC(c2ccc3c(c2)CCO3)=C1c1nn[nH]n1` (centres unmarked) [Example 237] here?
Answer: 130 nM

Question: How did the IC50 turn out when `Cc1ccc(C2=C(NC(=O)c3ccc(F)cc3Cl)C(=O)NC(c3ccc(OCCCC(F)(F)F)cc3)(C(F)(F)F)C2)cc1` (centres unmarked) [Example 170] was run?
Answer: 210 nM

Question: With `Cc1ccc(C2=C(NC(=O)c3cc(-c4cccc(F)c4)no3)C(=O)NC(c3ccc(OCCCC(F)(F)F)cc3)(C(F)(F)F)C2)cc1` (centres unmarked) [Example 190] as the molecule, how does the IC50 read?
Answer: 155 nM

Question: `CCCCCCC(=O)CNC(=O)C1(C)CC(c2ccc(C)cc2)=C(NC(=O)c2ccc(OC)cc2)C(=O)N1` (centres unmarked) [Example 191] was tested. Which IC50 did it give?
Answer: 797 nM

Question: With `Cc1ccc(C2=C(C(=O)Nc3cc(C)no3)C(=O)NC(c3ccc(OCCCC(F)(F)F)cc3)(C(F)(F)F)C2)cc1` (centres unmarked) [Example 281] as the molecule, how does the IC50 read?
Answer: 3 nM

Question: Which IC50 does the source give for `Cc1ccc(C2=C(c3nn[nH]n3)C(=O)NC(c3ccc(OCCCCC(F)(F)F)cc3F)(C(F)(F)F)C2)cc1` (centres unmarked) [Example 278] here?
Answer: 2 nM

Question: Which IC50 does the source give for `O=C1NC(c2ccc(OCCCC(F)(F)F)cc2)(C(F)(F)F)CC(c2ccc(OC(F)(F)F)cc2)=C1c1nn[nH]n1` (centres unmarked) [Example 243] here?
Answer: 14 nM

Question: `Cc1ccc(C2=C(NC(=O)c3ccc(OC(F)F)cc3)C(=O)NC(c3cnn(CCCCCC(F)(F)F)c3)(C(F)(F)F)C2)cc1` (centres unmarked) [Example 201] was tested. Which IC50 did it give?
Answer: 24 nM

Question: With `CCCCCn1cc(C2(C(F)(F)F)CC(c3ccc(C)cc3)=C(C#N)C(=O)N2)cn1` (centres unmarked) [Example 230] as the molecule, how does the IC50 read?
Answer: 1530 nM

Question: Which IC50 does the source give for `CCCCCCCC#CC1(C(F)(F)F)CC(c2ccc(C)cc2)=C(NC(=O)c2nnn[nH]2)C(=O)N1` (centres unmarked) [Example 311] here?
Answer: 3 nM

Question: Which IC50 does the source give for `CCOc1ccc(C2=C(c3nn[nH]n3)C(=O)NC(c3ccc(OCCCCCC(F)(F)F)c(F)c3)(C(F)(F)F)C2)cc1` (centres unmarked) [Example 305] here?
Answer: 94 nM

Question: How did the IC50 turn out when `Cc1ccc(C2=C(c3nn[nH]n3)C(=O)NC(c3ccc(OCCCC(F)(F)F)cc3)(C(F)F)C2)cc1` (centres unmarked) [Example 213] was run?
Answer: 1100 nM

Question: How did the IC50 turn out when `CCCCCCNC(=O)c1ccc(C2(C(F)(F)F)CC(c3ccc(C)cc3)=C(C(=O)Nc3ccc(OC)cc3)C(=O)N2)cc1` (centres unmarked) [Example 155] was run?
Answer: 484 nM

Question: `COc1ccc(C(=O)NC2=C(c3ccc(C)cc3)C(F)(F)C(c3ccc(OCCC(F)(F)F)cc3)(C(F)(F)F)NC2=O)cc1` (centres unmarked) [Example 162] was tested. Which IC50 did it give?
Answer: 214 nM

Question: With `Cc1ccc(C2=C(Oc3ccccc3)C(=O)N[C@@](c3ccc(OCCCC(F)(F)F)cc3)(C(F)(F)F)C2)cc1` [Example 106, (S)-3-Phenoxy-4-p-tolyl-6-(4-(4,4,4-trifluorobutoxy)phenyl)-6-(trifluoromethyl)-5,6-dihydropyridin-2(1H)-one] as the molecule, how does the IC50 read?
Answer: 552 nM

Question: `CCOCc1ccc(C2=C(c3nn[nH]n3)C(=O)NC(c3ccc(OCCCC(F)(F)F)cc3)(C(F)(F)F)C2)cc1F` (centres unmarked) [Example 203] was tested. Which IC50 did it give?
Answer: 59 nM

Question: Which IC50 does the source give for `COc1ccc(NC(=O)C2=C(c3ccc(C)cc3)CC(C)(C(=O)NCCCc3ccccc3)NC2=O)cc1` (centres unmarked) [Example 175] here?
Answer: 264 nM

Question: `Cc1ccc(C2=C(n3cnnc3C)C(=O)NC(c3ccc(OCCCC(F)(F)F)cc3)(C(F)(F)F)C2)cc1` (centres unmarked) [Example 186] was tested. Which IC50 did it give?
Answer: 229 nM

Question: With `O=C1NC(c2ccc(OCCCCCC(F)(F)F)cc2F)(C(F)(F)F)CC(c2ccc3ccccc3c2)=C1c1nn[nH]n1` (centres unmarked) [Example 276] as the molecule, how does the IC50 read?
Answer: 2 nM

Question: Which IC50 does the source give for `COc1ccc(NC(=O)C2=C(c3ccc(C)cc3)CC(C)(C(=O)NCc3ccccc3)NC2=O)cc1` (centres unmarked) [Example 189] here?
Answer: 1160 nM

Question: How did the IC50 turn out when `COc1ccc(C2=C[C@](c3ccc(OCCCC(F)(F)F)cc3)(C(F)(F)F)NC(=O)C2(F)C#N)cc1` (single isomer, unassigned) [Example 15-2, 3-Fluoro-4-(4-methoxyphenyl)-2-oxo-6-(4-(4,4,4-trifluorobutoxyl)phenyl)-6-(trifluoromethyl)-1,2,3,6-tetrahydropyridine-3-carbonitrile] was run?
Answer: 431 nM

Question: How did the IC50 turn out when `Cc1ccc(C2=C(c3cn[nH]n3)C(=O)NC(C#CC3CC3)(C(F)(F)F)C2)cc1` (centres unmarked) [Example 197] was run?
Answer: 178 nM

Question: `CCOc1ccc(C2=C(C#N)C(=O)NC(c3ccc(OCCCC(F)(F)F)cc3)(C(F)(F)F)C2)cc1Cl` (centres unmarked) [Example 263] was tested. Which IC50 did it give?
Answer: 103 nM

Question: Which IC50 does the source give for `Cc1ccc(C2=C(C#N)C(=O)NC(c3ccc(OCCCC(F)(F)F)cc3)(C(F)(F)F)C2)cc1Cl` (centres unmarked) [Example 259] here?
Answer: 15 nM

Question: With `Cc1ccc(C2=C(C#N)C(=O)NC(c3ccc(OCCCC(F)(F)F)cc3)(C(F)(F)F)C2)cc1C` (centres unmarked) [Example 217] as the molecule, how does the IC50 read?
Answer: 118 nM

Question: `Cc1ccc(C2=C(c3nn[nH]n3)C(=O)NC(c3ccc(Br)cc3)(C(F)(F)F)C2)cc1` (centres unmarked) [Example 233] was tested. Which IC50 did it give?
Answer: 639 nM

Question: Which IC50 does the source give for `O=C1NC(c2ccc(OCCCC(F)(F)F)cc2)(C(F)(F)F)CC(c2ccc(OC(F)F)cc2)=C1c1nn[nH]n1` (centres unmarked) [Example 205] here?
Answer: 13 nM

Question: How did the IC50 turn out when `CCCCCCC#Cc1ccc(C2(C(F)(F)F)CC(c3ccc(OCC)cc3)=C(c3nn[nH]n3)C(=O)N2)cc1F` (centres unmarked) [Example 308] was run?
Answer: 61 nM

Question: How did the IC50 turn out when `CCNC(=O)NC1=C(c2ccc(C)cc2)CC(c2ccc(OCCCC(F)(F)F)cc2)(C(F)(F)F)NC1=O` (centres unmarked) [Example 255] was run?
Answer: 702 nM

Question: How did the IC50 turn out when `Cc1ccc(C2=C(c3nn[nH]n3)C(=O)NC(c3cnn(CCCCC(F)(F)F)c3)(C(F)(F)F)C2)cc1` (centres unmarked) [Example 12, 3-(2H-Tetrazol-5-yl)-4-p-tolyl-6-(trifluoromethyl)-6-(1-(5,5,5-trifluoropentyl)-1H-pyrazol-4-yl)-5,6-dihydropyridin-2(1H)-one] was run?
Answer: 374 nM

Question: For `Cc1ccc(C2=C(C(=O)Nc3cc(C)[nH]n3)C(=O)NC(c3ccc(OCCC(F)(F)F)cc3)(C(F)(F)F)C2)cc1` (centres unmarked) [Example 131], which IC50 is on record?
Answer: 1050 nM

Question: How did the IC50 turn out when `CCCCCCC#CC1(C(F)(F)F)CC(c2ccc(C)cc2)=C(NC(=O)CNS(C)(=O)=O)C(=O)N1` (centres unmarked) [Example 298] was run?
Answer: 2 nM
